Experimental data as given in patent US10072021B2, “Compound for inhibiting binding between DX2 protein and P14/ARF protein, and pharmaceutical composition for treating or preventing cancer disease containing same as effective ingredient” (PUSAN NATIONAL UNIVERSITY INDUSTRY-UNIVERSITY COOPERATION …, priority 2014, dated 2018).
“Also recorded” adds a separate entry of the source.

Key:
[1] = tested on: DX2 and DK MEFs; primary tumor cells from DX2 and DK mice; assay: Reduction of anticancer drug resistance in DX2 and DK MEFs or primary tumor cells (MTT); format: cell-based, mouse
Procedure: (§1) By MTT assay, anticancer effects were confirmed based on viability of tumor cells. That is, cells were incubated in 0.5 mg/ml of MTT solution for 4 hours at a temperature of 37° C. for a reaction, and then, formazen products formed therefrom were dissolved in dimethyl sulfoxide (DMSO). Then, absorbance thereof was measured at 540 nm by using a spectrometer.

p53 = p53 induction in primary tumor cells (western blotting); format: cell-based; settings: combinational treatment with Adriamycin and SLCB050, primary tumor cells from DX2 or DK mouse, FIG. 9C
Procedure: To carry out western blot analysis, proteins were thermally inactivated in RIPA buffer (heat treatment for 7 minutes at a temperature of 95° C.), and then, the resulting proteins were applied to SDS-PAGE, followed by western blot analysis according to a known method in the art (J. Clin. Oncol. 16, 1207-1217, 1998; Nat. Rev. Cancer 2, 489-501, 2002). Antibodies used herein, e.g., HA (sc-7392), His (sc-8036), GFP (sc-9996), GST (sc-138), Actin (se-1616), and p19/ARF (sc-32748), were purchased from Santa Cruz Biochnology, anti-p14/ARF (MAB3782) was purchased from Millipore, and FLAG-M2 and anti-C-Myc (M5546) were purchased from Sigma Aldrich. In addition, anti-AIMP2 was provided from Professor. Kim, Sung-Hoon (Seoul Nat. Univ.).

DX2-AIMP2 binding = target: T1, DX2-AIMP2 binding (Homo sapiens, UniProt Q13155); assay: Protein binding assay using His-DX2 protein; settings: FIG. 2C
T1 sequence (Q13155 1-251 isoform Q13155-2): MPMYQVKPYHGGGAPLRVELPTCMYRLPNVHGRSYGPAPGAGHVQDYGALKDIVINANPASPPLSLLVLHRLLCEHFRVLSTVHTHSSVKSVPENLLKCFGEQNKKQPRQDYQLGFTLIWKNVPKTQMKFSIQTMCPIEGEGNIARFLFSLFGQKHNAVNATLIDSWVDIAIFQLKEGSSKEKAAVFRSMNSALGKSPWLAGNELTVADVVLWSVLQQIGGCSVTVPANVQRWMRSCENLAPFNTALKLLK
Procedure: (§2) Here, contransfected 293 cells were allowed to react with MG132 before immunoprecipitation analysis to prevent reduction of two proteins, and after performing SLCB050 treatment (10 μM, 6 hours), immunoprecipitation assay was performed on the cells by using Myc antibodies (DX2).
(§3) To address direct binding between the two proteins, agarose-bead conjugated GST (negative control) or GST-target protein was incubated with cell lysate or recombinant protein in radioimmunoprecipitation assay (RIPA) buffer (NaCl, 25 mM Tris-Cl, 1% NP-40, 1% sodium deoxycholate, 0.1% SDS, protease inhibitor mixture) for 1 hour at a temperature of 4° C. for a reaction.

DX2-p14/ARF interaction = target: T2, DX2-p14/ARF interaction (Homo sapiens, UniProt Q13155); assay: Immunoprecipitation analysis of DX2-p14/ARF interaction in cotransfected 293 cells; format: cell-based; settings: MG132, SLCB050 10 μM, 6 hours, IP with Myc antibodies
T2 construct: expressed in transfected cells; host or cells: 293 (HEK293) cells
T2 sequence (Q13155 1-251 isoform Q13155-2): T1 sequence (Q13155 1-251 isoform Q13155-2)
Procedure: as §2
Here, 293 cells were transfected with indicating vectors for 24 hours and was allowed to react with MG132 and SLCB050 for 6 hours.
Immunoprecipitation (IP) assay was performed with cell lysate or recombinant protein with RIPA buffer. The whole lysates were incubated with suitable antibodies for 2 hours at a temperature of 4° C. for a reaction, and then, the mixtures were added with A/G-agarose beads-conjugated secondary antibody (Invitrogen, Carlsbad, Calif., USA) for 2 hours. After incubation for a reaction, the mixtures were washed using RIPA buffer twice, and precipitated proteins were determined by western blot analysis.

[2] = tested on: human lung cancer cell lines; assay: MTT viability of various human lung cancer cell lines; format: cell-based; settings: 24 hours, MTT assay, FIG. 5
Procedure: as §1

[3] = tested on: H128 cells (SCLC cell line); assay: Soft agar colony formation assay in H128 cells; format: cell-based, human; settings: 48 hours, trypan blue staining, FIG. 6
Procedure: H128 cells which are SCLC cell lines were seeded in soft agar plates and allowed to react with SLCB050 for 48 hours, and then, the cells were examined after staining the cells with trypan blue.

H69 and H322 cells = assay: Sensitivity of lung cancer cell lines to combinational treatment with Adriamycin and SLCB050; format: cell-based, human; settings: combinational treatment with Adriamycin, FIG. 8C
Procedure: as §1

[4] = tested on: H128 cells (SCLC cell line); assay: MTT viability of H128 cells; format: cell-based, human; settings: MTT assay, FIG. 7
Procedure: as §1

p53-AIMP2 or DX2 binding = assay: GST pull-down assay, selectivity: p53-AIMP2 or DX2 binding; settings: FIG. 3B
Description: Through GST pull-down assays, more specific binding inhibitors were selected among the previously screened candidate drugs as DX2-p14/ARF binding inhibitors. That is, a p14/ARF fragment (full-length) was ligated into EcoRI and Hind II sites of pGEX-TEV vector, which is a modified vector by adding a TEV protease cleavage site to pGEX-4T1. The recombinant proteins were then expressed in E. coli strain BL21(DE3) as GST-fusion proteins. The proteins were purified by glutathione affinity chromatography.
as §3

CC1(C)Oc2cc3oc(=O)ccc3cc2C[C@@H]1OC(=O)/C=C/c1ccco1 [SLCB050, (7S)-(+)-3-(2-Furanyl)-acrylic acid, 8,8-dimethyl-2-oxo-6,7-dihydro-2H,8H-pyrano[3,2-g]chromen-7-yl-ester]
resistance to Adriamycin in primary tumor cells from DX2 and DK mice ([1]; Adriamycin 0.2 μg/ml with SLCB050 10 μM, 24 hours, FIG. 8B): resistance to Adriamycin was also abolished | resistance to GN25 in DX2 and DK MEFs ([1]; GN25 5 μM with SLCB050 10 or 20 μM, 6 hours, FIG. 8A): resistance to GN25 in DX2 and DK cells was abolished | p53 induction in primary tumor cells (p53): induced p53 synergistically | binding between DX2 and AIMP2 (DX2-AIMP2 binding): binding between DX2 and AIMP2 was reduced | interaction of p14/ARF with DX2 in cells (DX2-p14/ARF interaction): inhibited the interaction of p14/ARF with DX2 in cells | viability of SCLC cells [2]: very sensitive | viability of p14/ARF-deficient cell lines [2]: resistant | number of colonies / H128 cell growth in soft agar [3]: completely suppressed the H128 cell growth; also recorded: reduced the number of colonies in a dose-dependent manner | sensitivity to Adriamycin in SCLC cell line H69 (H69 and H322 cells): sensitivity to Adriamycin improved | sensitivity to Adriamycin in p14/ARF-deficient H322 cells (H69 and H322 cells): did not show improved sensitivity | viability of H128 cells [4]: reduced the viability of H128 cells in a dose-dependent manner | inhibition of p53-AIMP2 or DX2 binding (p53-AIMP2 or DX2 binding): not on p53-AIMP2 or DX2 binding
